In patent US20250051277A1, “DELIVERY OF THERAPEUTIC ALKALOID COMPOUNDS” (Sensorium Therapeutics, Inc., priority 2021, published 2025):
pIC50: −log10 of the molar value. Like-named read-outs stand apart in the source and are kept apart here.

What was measured:
[1] = Hydrolysis Assay of Example A1 (conversion by LCMS); assay type: physicochemical; conditions: pH = 2.0, 25° C., 0.5 mM, 0.01M HCl; 0-48 h
Method: The hydrolysis kinetics was under a certain temperature and measured by LCMS at a certain time interval. The corresponding LCMS chromatograms were recorded and the conversions were calculated. The hydrolysis conditions and the data were summarized in below table. LCMS spectra were obtained using Agilent 1200/G1956A or SHIMADZU LCMS-2020. Standard LCMS conditions were as follows (running time 1.55 minutes): • Acidic condition: Mobile Phase A: 0.0375% TFA in water (v/v). Mobile Phase B: 0.01875% TFA in acetonitrile (v/v); Column: Kinetex EVO C18 30*2.1 mm, 5 μm. • Basic condition: Mobile Phase A: 0.025% NH3·H2O in water (v/v). Mobile Phase B: Acetonitrile; Column: Kinetex EVO C18 2.1×30 mm, 5 μm. • Conversion (%)=peak area 1/(peak area 1+peak area 2)*100%, peak area 1 is the integration of hydrolyzed product, peak area 2 is the integration of starting material.

[2] = assay type: physicochemical; conditions: SGF with pepsin, pH 1.5, 37° C., 0.5 mM
[3] = assay type: physicochemical; conditions: DI water, 25° C., 0.5 mM
[4] = Plasma Stability Assay of Example A4, rat plasma; conditions: 37° C., 10 μM
[5] = Plasma Stability Assay of Example A4, human plasma; conditions: 37° C., 10 μM
[6] = biological target: SERT (Homo sapiens (Human), UniProt P31645); assay type: cell-based; conditions: stable 5HTT cells, 30 minutes at 37° C.
[7] = Pharmacokinetics of 043 and 001 in mice after oral 043 (75 mg/kg); assay type: in vivo, male C57BL/6 mice
Method: Total twelve male mice were used in this study. […] The formulation vehicle used was normal saline.
The plasma and brain concentration-time data of 043 and 001 was used for the pharmacokinetic analysis.
The extraction procedure for plasma/brain samples and the spiked plasma/brain calibration standards were identical:
A 25 μL of study sample plasma/brain (dilution applied to some samples) or spiked plasma calibration standard was added to individual pre-labeled micro-centrifuge tubes followed by 100 μL of internal standard prepared in acetonitrile (Glipizide-500 ng/mL) was added except for blank, where 100 μL of acetonitrile was added. Samples were vortexed for 5 minutes. Samples were centrifuged for 10 minutes at a speed of 4000 rpm at 4° C. Following centrifugation, 100 μL of clear supernatant was transferred in 96 well plates and analyzed using LC-MS/MS.

[8] = in vivo; for Plasma levels of 001: mouse, iv, 2 mg/kg
Method: Male C57/BL6 mice were used to evaluate each compound, with n=3 mice/time point.
Animals were administered through intravenous route with solution formulation at 2 mg/kg dose. […] Following blood collection, immediately, animals were sacrificed, and vena-cava was cut open and blood was drained. […] Brain samples were collected from set of three mice at each time point. […] Brain samples were homogenized using 2 volumes of ice-cold PBS (pH-7.4) of brain weight. […] Concentrations of compound (or compound and metabolite) in mouse plasma and brain samples were determined by fit for purpose LC-MS/MS method.

[9] = 5 μM
[10] = 5 μM; remark: listed apart in the source
[11] = analyte = label, single oral administration of 043, 75 mg/kg, male C57BL/6 mice
[12] = brain, analyte = label, single oral administration of 043, 75 mg/kg, male C57BL/6 mice
[13] = plasma, analyte = label, single oral administration of 043, 75 mg/kg, male C57BL/6 mice

## COc1ccc([C@@]23CCC(OC(C)=O)=C[C@@H]2N(C)CC3)cc1OC [Compound 026, [(3aS,7aS)-3a-(3,4-dimethoxyphenyl)-1-methyl-3,4,5,7a-tetrahydro-2H-indol-6-yl]acetate]
[1]
  Conversion (%): 0%
  Notes (hydrolysis): Stable;
[2]; time 1 min
  Condition 1 Conversion (%): 0%
[2]; time 5 min
  Condition 1 Conversion (%): 0%
[2]; time 30 min
  Condition 1 Conversion (%): 0%
[2]; time 1 h
  Condition 1 Conversion (%): 0%
[2]; time 4 h
  Condition 1 Conversion (%): 0%
[2]; time 24 h
  Condition 1 Conversion (%): 0%
[3]; time 1 min
  Condition 2 Conversion (%): 0%
[3]; time 5 min
  Condition 2 Conversion (%): 0%
[3]; time 30 min
  Condition 2 Conversion (%): 0%
[3]; time 1 h
  Condition 2 Conversion (%): 0%
[3]; time 4 h
  Condition 2 Conversion (%): 0%
[3]; time 24 h
  Condition 2 Conversion (%): 0%
[4]; time 0.0 min
  Compound 001 (%) (metabolite mesembrine), Rat Plasma: 96.2%
  Prodrug (%) remaining, Rat Plasma: 100.0%
[4]; time 10 min
  Compound 001 (%) (metabolite mesembrine), Rat Plasma: >99%
  Prodrug (%) remaining, Rat Plasma: 0.0%
[4]; time 30 min
  Compound 001 (%) (metabolite mesembrine), Rat Plasma: >99%
  Prodrug (%) remaining, Rat Plasma: 0.0%
[4]; time 60 min
  Compound 001 (%) (metabolite mesembrine), Rat Plasma: >99%
  Prodrug (%) remaining, Rat Plasma: 0.0%
[4]; time 120 min
  Compound 001 (%) (metabolite mesembrine), Rat Plasma: >99%
  Prodrug (%) remaining, Rat Plasma: 0.0%
[4]; time 240 min
  Compound 001 (%) (metabolite mesembrine), Rat Plasma: >99%
  Prodrug (%) remaining, Rat Plasma: 0.0%
[5]; time 0.0 min
  Compound 001 (%) (metabolite mesembrine), Human Plasma: >99%
  Prodrug (%) remaining, Human Plasma: 100.0%
[5]; time 10 min
  Compound 001 (%) (metabolite mesembrine), Human Plasma: >99%
  Prodrug (%) remaining, Human Plasma: 40.3%
[5]; time 30 min
  Compound 001 (%) (metabolite mesembrine), Human Plasma: >99%
  Prodrug (%) remaining, Human Plasma: 23.5%
[5]; time 60 min
  Compound 001 (%) (metabolite mesembrine), Human Plasma: >99%
  Prodrug (%) remaining, Human Plasma: 12.0%
[5]; time 120 min
  Compound 001 (%) (metabolite mesembrine), Human Plasma: >99%
  Prodrug (%) remaining, Human Plasma: 3.4%
[5]; time 240 min
  Compound 001 (%) (metabolite mesembrine), Human Plasma: >99%
  Prodrug (%) remaining, Human Plasma: 0.8%

## CO/N=C1/CC[C@@]2(c3ccc(OC)c(OC)c3)CCN(C)[C@H]2C1 [Compound 035, (Z, 3aS,7aS)-3a-(3,4-dimethoxyphenyl)-N-methoxy-1-methyl-2,3,4,5,7,7a-hexahydroindol-6-imine]
[2]; time 1 min
  Condition 1 Conversion (%): 0%
[2]; time 5 min
  Condition 1 Conversion (%): 0%
[2]; time 30 min
  Condition 1 Conversion (%): 5.4%
[2]; time 1 h
  Condition 1 Conversion (%): 13.1%
[2]; time 4 h
  Condition 1 Conversion (%): 35.2%
[2]; time 24 h
  Condition 1 Conversion (%): 38.9%
[6]
  pIC50: > 7.30

## CO/N=C1\CC[C@@]2(c3ccc(OC)c(OC)c3)CCN(C)[C@H]2C1 [Compound 038, (E,3aS,7aS)-3a-(3,4-dimethoxyphenyl)-N-methoxy-1-methyl-2,3,4,5,7,7a-hexahydroindol-6-imine]
[2]; time 1 min
  Condition 1 Conversion (%): 0%
[2]; time 5 min
  Condition 1 Conversion (%): 0%
[2]; time 30 min
  Condition 1 Conversion (%): 1.3%
[2]; time 1 h
  Condition 1 Conversion (%): 11.9%
[2]; time 4 h
  Condition 1 Conversion (%): 31.3%
[2]; time 24 h
  Condition 1 Conversion (%): 49.9%
[6]
  pIC50: > 7.30

## COc1ccc([C@]23CCN(C)[C@H]2CC2(CC3)OCCO2)cc1OC [Compound 043]
[2]; time 1 min
  Condition 1 Conversion (%): 0%
[2]; time 5 min
  Condition 1 Conversion (%): 0%
[2]; time 30 min
  Condition 1 Conversion (%): 0%
[2]; time 1 h
  Condition 1 Conversion (%): 0%
[2]; time 4 h
  Condition 1 Conversion (%): 0%
[2]; time 24 h
  Condition 1 Conversion (%): 0%
[6]
  pIC50: > 7.30
[7]; 75 mg/kg po in mice
  conversion of prodrug to 001 in vivo: efficiently converts to 001 in vivo
[7]; [11]
  Brain concentrations quantifiable up to: 4 h
  brain exposure-Kp: < 1
[7]; [12]
  AUClast: 1787.23 ng·h/mL
  Cmax: 2684.81 ng/mL
  Tmax: 30 min
[7]; [13]
  AUClast: 2555.07 ng·h/mL
  Cmax: 3392.53 ng/mL
  Tmax: 30 min

## COc1ccc(C23CCN(C)C2CC2(CC3)OCCO2)cc1OC (centres unmarked) [Compound 044]
[2]; time 1 min
  Condition 1 Conversion (%): 0%
[2]; time 5 min
  Condition 1 Conversion (%): 0%
[2]; time 30 min
  Condition 1 Conversion (%): 0%
[2]; time 1 h
  Condition 1 Conversion (%): 0%
[2]; time 4 h
  Condition 1 Conversion (%): 0%
[2]; time 24 h
  Condition 1 Conversion (%): 0%
[6]
  pIC50: < 6.00

## COc1ccc([C@]23CCN(C)[C@H]2CC2(CC3)SCCS2)cc1OC [Compound 045, (3′aS,7′aS)-3′a-(3,4-dimethoxyphenyl)-1′-methyl-spiro[1,3-dithiolane-2,6′-2,3,4,5,7,7a-hexahydroindole]]
[2]; time 1 min
  Condition 1 Conversion (%): 0%
[2]; time 5 min
  Condition 1 Conversion (%): 0%
[2]; time 30 min
  Condition 1 Conversion (%): 0%
[2]; time 1 h
  Condition 1 Conversion (%): 0%
[2]; time 4 h
  Condition 1 Conversion (%): 0%
[2]; time 24 h
  Condition 1 Conversion (%): 0%
[6]
  pIC50: < 6.00

## COc1ccc([C@@]23CCN(C)[C@@H]2CC2(CC3)SCCS2)cc1OC [Compound 046, (3′aR,7′aR)-3′a-(3,4-dimethoxyphenyl)-1′-methyl-spiro[1,3-dithiolane-2,6′-2,3,4,5,7,7a-hexahydroindole]]
[2]; time 1 min
  Condition 1 Conversion (%): 0%
[2]; time 5 min
  Condition 1 Conversion (%): 0%
[2]; time 30 min
  Condition 1 Conversion (%): 0%
[2]; time 1 h
  Condition 1 Conversion (%): 0%
[2]; time 4 h
  Condition 1 Conversion (%): 0%
[2]; time 24 h
  Condition 1 Conversion (%): 0%
[6]
  pIC50: 6.30 to 7.00

## CCC(=O)OC1=C[C@@H]2N(C)CC[C@]2(c2ccc(OC)c(OC)c2)CC1 [Compound 317, [(3aS,7aS)-3a-(3,4-dimethoxyphenyl)-1-methyl-3,4,5,7a-tetrahydro-2H-indol-6-yl]propanoate]
[2]; time 1 min
  Condition 1 Conversion (%): 0%
[2]; time 5 min
  Condition 1 Conversion (%): 0%
[2]; time 30 min
  Condition 1 Conversion (%): 0%
[2]; time 1 h
  Condition 1 Conversion (%): 0%
[2]; time 4 h
  Condition 1 Conversion (%): 0%
[2]; time 24 h
  Condition 1 Conversion (%): 0%
[3]; time 1 min
  Condition 2 Conversion (%): 0%
[3]; time 5 min
  Condition 2 Conversion (%): 0%
[3]; time 30 min
  Condition 2 Conversion (%): 0%
[3]; time 1 h
  Condition 2 Conversion (%): 0%
[3]; time 4 h
  Condition 2 Conversion (%): 0%
[3]; time 24 h
  Condition 2 Conversion (%): 0%
[8]; male, C57BL/6, mouse
  quantifiable levels of 001 in plasma up to: 60 min
[8]
  Plasma levels of 001: not detectable

## COc1ccc([C@@]23CCC(OC(=O)CC(C)C)=C[C@@H]2N(C)CC3)cc1OC [Compound 334, [(3aS,7aS)-3a-(3,4-dimethoxyphenyl)-1-methyl-3,4,5,7a-tetrahydro-2H-indol-6-yl]3-methylbutanoate]
[2]; time 1 min
  Condition 1 Conversion (%): 0%
[2]; time 5 min
  Condition 1 Conversion (%): 0%
[2]; time 30 min
  Condition 1 Conversion (%): 0%
[2]; time 1 h
  Condition 1 Conversion (%): 0%
[2]; time 4 h
  Condition 1 Conversion (%): 0%
[2]; time 24 h
  Condition 1 Conversion (%): 0%
[3]; time 1 min
  Condition 2 Conversion (%): 0%
[3]; time 5 min
  Condition 2 Conversion (%): 0%
[3]; time 30 min
  Condition 2 Conversion (%): 0%
[3]; time 1 h
  Condition 2 Conversion (%): 0%
[3]; time 4 h
  Condition 2 Conversion (%): 0%
[3]; time 24 h
  Condition 2 Conversion (%): 0%
[8]; male, C57BL/6, mouse
  quantifiable levels of 001 in brain up to: 2 h
  quantifiable levels of 001 in plasma up to: 60 min
[8]
  Plasma levels of 001: not detectable
[9]; 15 min
  Mouse Plasma Compound 001 (%): 73.1%
[9]; 30 min
  Mouse Plasma Compound 001 (%): 70.9%
[9]; 60 min
  Mouse Plasma Compound 001 (%): 68.8%
[9]; 120 min
  Mouse Plasma Compound 001 (%): 70.0%
[9]; 240 min
  Mouse Plasma Compound 001 (%): 68.5%
[10]; 15 min
  Human Plasma Compound 001 (%): 63.6%
[10]; 30 min
  Human Plasma Compound 001 (%): 63.7%
[10]; 60 min
  Human Plasma Compound 001 (%): 65.4%
[10]; 120 min
  Human Plasma Compound 001 (%): 65.1%
[10]; 240 min
  Human Plasma Compound 001 (%): 63.8%
